Data taken from patent US9821077B2, “Diagnostic substances for optical imaging testing on the basis of nanoparticular formulations” (NANOPET PHARMA GMBH, priority 2007, dated 2017).
Several values for one entry are separate records, joined by “and”; a condition that tells them apart may be missing. Equal values may be shown once.

Assays:
[1] = Absorption spectra, absorption maximum; assay type: physicochemical; conditions: dye in water
Description: Absorption spectra in a wavelength range of 700 nm to 900 nm were recorded with a UVIKON 933 Spectrophotometer (company Kontron) in the various solvents. →ICG in water λmax=780 nm ICO micelles λmax=797 nm (FIG. 1A)
Absorption spectra were recorded in a wavelength range of 600 nm to 900 nm with a DU®530 Beckman Spectralphotometer in the various solvents. →ICG in water λmax=779 nm ICG-Cithrol 10 MS micelles λmax=800 nm (FIG. 2A)
Absorption spectra were recorded in a wavelength range of 600 nm to 900 nm with a DU®530 Beckman Spectralphotometer in the various solvents. →ICG in water λmax=779 nm ICG-Crodet S40 LD micelles λmax=800 nm (FIG. 3A)
(§1) Absorption spectra were recorded in a wavelength range of 600 nm to 900 nm with a DU®530 Beckman Spectralphotometer in the various solvents. […]
as §1
Absorption spectra were recorded in a wavelength range of 600 nm to 900 nm with a DU®530 Beckman Spectralphotometer in the various solvents. →NW003.5 in water λmax (monomer)=788 nm NW003.5-Solutol® HS 15 micelles λmax=806 nm (FIG. 6B)
Absorption spectra were recorded in a wavelength range of 600 nm to 900 nm with a DU®530 Beckman Spectra'photometer in the various solvents. →IR-783 in water λmax (Monomer)=775 nm IR-783-Solutol® HS 15 micelles λmax=797 nm (FIG. 7B)

[2] = Fluorescence measurements, quantum yield; assay type: physicochemical; conditions: in water; standard ICG in DMSO
Description: Fluorescence measurements were carried out by means of a FluoroLog-2 Spectrofluorometer (350 W Xenon lamp) of the company Spex. For this purpose, emission spectra of 700 nm to 900 nm were recorded. The excitation wavelength corresponded to the respective maximum of the formulation in the absorption spectrum (ICG in water λmax=780 nm and ICG micelles λmax=795 nm). Due to the s & r modus of the software DM 3000, the different lamp intensities of the different excitation wavelengths could be taken into account in the evaluation.
The quantum yield is calculated via the surface area below the emission curve. ICG in DMSO was used as the standard (Φ=0.13).
(§2) Fluorescence measurements were carried out by means of a Spectrofluorometer FP-6500 of the company JASCO. For this purpose, emission spectra of 770 to 900 nm were recorded. […] The quantum yield is calculated via the surface area below the emission curve. […]
as §2, §2

[3] = Stability test, absorption as a function of time; assay type: physicochemical; conditions: purely aqueous formulation, 0.0005% ICG, room temperature, 7 days
Description: For the stability test the absorption in the maximum of the various formulations was measured as a function of time. For this purpose, 0.0005% ICG solutions were prepared and stored at room temperature.
For the stability test the absorption spectra of the various formulations were measured as a function of time.

plasma protein = test: Plasma protein binding by wavelength shift in the absorption spectrum; assay type: in vitro ADME
Excerpt: For this purpose, spectra of 700 nm to 900 nm of ICG in water and in plasma were compared with spectra of ICG micelles in water and in plasma.

[4] = in DMSO, used as the standard; cited from earlier work

| absorption maximum λmax [1] | fluorescence quantum yield Φ [2] | standardized absorption after storage [3] | absorption maximum in plasma (plasma protein) | SMILES | fluorescence quantum yield Φ of the standard [4] |
| --- | --- | --- | --- | --- | --- |
| 779 nm and 780 nm | 0.02 | below 10% | 805 nm | CC1(C)C(/C=C/C=C/C=C/C=C2\N(CCCCS(=O)(=O)O)c3ccc4ccccc4c3C2(C)C)=[N+](CCCCS(=O)(=O)[O-])c2ccc3ccccc3c21 [ICG, indocyanine green] | 0.12 and 0.13 |
| 775 nm | – | – | – | CC1(C)C(=CC=C2CCCC(C=CC3=[N+](CCCCS(=O)(=O)[O-])c4ccccc4C3(C)C)=C2Cl)N(CCCCS(=O)(=O)[O-])c2ccccc21.[Na+] [IR-783] | – |
